Experimental data: patent US6774131B1, “Remedies for endothelin-induced diseases” (Yamanouchi Pharmaceutical Co., Ltd., priority 2000, dated 2004)

Legend:
[1] = system: MC3T3-E1, mouse osteoblast-like cells; test: ET-1-induced cell number increase in MC3T3-E1 (cell counting kit, WST-1); format: cell-based
Procedure: (§1) MC3T3-E1, mouse osteoblast-like cells, was used in these experiments (Journal of Cell Biology,96(1),191-198,1983).
Cell number was counted by using a reagent solution of a cell counting kit (DOJINDO). The cells were seeded at a density of 1.0×10^4 cells/well in a 24-well plate using 0.5% FCS culture medium and cultured for one day. Subsequently, vehicle or ET-1 was added to the plate and cultured for 72 hours. Continuously, a reagent solution was added at 100 μl/well to the culture and incubated at 37° C. for 3 hours. After this reaction, 200-μl portions were transferred from the individual wells of the 24-well plate to a 96-well plate, to measure the absorbance (at a wave length of 405 nm and a reference wave length of 650 nm) with a plate reader. As a control, the count of a culture to which the vehicle was added was defined 100%, thus the percentage increase of cell number was calculated. […]
(§2) The results are shown in the form of mean±standard error. The significant difference between groups was analyzed by one-way analysis of variance, to calculate the p-values by the Dunnett's multiple range test. […] At each experiment, the EC50 value of ET-1 and the IC50 value of the Compound 1 were calculated by the Logistic regression analysis.

[2] = system: PPC-1, hormone-refractory human prostate cancer cells; test: ET-1-induced cell growth ([3H]-thymidine incorporation) of PPC-1; format: cell-based
Procedure: PPC-1, hormone-refractory human prostate cancer cells, was used in these experiments (International Journal of Cancer,44,898-903,1989).
DNA synthesis level was measured as the index of cell growth. As DNA synthesis level, the incorporation of [^3H]-labeled thymidine was assayed. The cells were seeded at a density of 1×10^4 cells/well in a 96-well plate using no FCS-added culture medium and cultured for 5 days. Subsequently, vehicle or ET-1 was added to the plate and cultured for 24 hours. Continuously, [^3H-methyl]-thymidine was added at 0.5 μCi/well to the culture and pulse-labeling performed for 6 hours. Continuously, SDS solution to a final concentration of 0.2% was added for solubilization of the cell, and after solubilization the radioactivity of [^3H-methyl]-thymidine used for DNA synthesis was counted with a liquid scintillation counter. As a control, the count of a culture to which the vehicle was added was defined 100%, thus the percentage increase of DNA synthesis was calculated.
In this experiment, ET-1 and Compound 1 were within the concentration ranges of 10^−13 to 10^−6 M (10-fold dilution series) and 10^−10 to 3×10^−6 M (3-fold dilution series), respectively, as the final concentrations thereof. Compound 1 was added about 2 hr before the addition of ET-1.
The results are shown in the form of mean t standard error. The significant difference between groups was analyzed by one-way analysis of variance, and calculated the p-values by the Dunnett's multiple range test. The p-value below 5% was defined as statistically significant. The IC50 value of the Compound 1 were calculated by the Logistic regression analysis.

[3] = system: mouse formalin-induced pain model; test: ET-1-induced enhancement of pain responses in mouse formalin-induced pain model; format: in vivo
Procedure: Suppressive effects of Compound 1 to the enhancement of pain responses induced by ET-1 in mouse formalin-induced pain model
Male ICR mice (age of 5 weeks; Nippon SLC) were used in these experiments.
The mice were placed in a cage for observation, to acclimate the mice to the environment for 5 minutes or longer; then, physiological saline of 20 μl was subcutaneously injected to the mouse left hind paws, while 0.7% formalin-containing physiological saline of 20 μl was subcutaneously injected to the mouse right hind paws. The duration of licking and biting reactions emerging immediately thereafter was counted every 5 minutes, for 40 minutes. After the termination of the counting, both the ankles were amputated and weighed. The reaction time immediately after formalin injection to 5 minutes later was defined as first phase; and the 30 minutes reaction time from 10 minutes after injection until 40 minutes later was defined in total as second phase, which were used as the indices of pain. Additionally, the edema calculated on the basis of the right foot weight minus the left foot weight (in mg) was used as an index of inflammatory reaction. Additionally, in all cases the licking reaction time was counted between 10:00 and 18:00.
0.7% formalin-containing physiological saline containing ET-1 at doses of 3, 10 and 30 pmol/paw was subcutaneously injected in the right hind paws to examine the action of ET-1 to enhance formalin-induced pain and edema.
Compound 1 (0.3 to 3 mg/kg) was orally administered at a dose of 1 ml/100 g. Sixty minutes after oral administration, 0.7% formalin-containing physiological saline containing ET-1 (10 pmol/paw) was subcutaneously injected in the right hind paws, to examine the effect of the Compound 1 on the ET-1-induced enhancements of formalin-induced pain and edema.
The results are shown in the form of mean±standard error. The significant difference between two groups was calculated the p-value by Students unpaired t-test. The significant difference between groups was analyzed by one-way analysis of variance, to calculate the p-values by the Dunnett's multiple range test. The p-value below 5% was defined as statistically significant.

[4] = system: MC3T3-E1, mouse osteoblast-like cells; test: ET-1-induced increase of intracellular Ca2+ concentration in MC3T3-E1; format: cell-based
Procedure: as §1
The cell was cultured in a cell disk (of a 13.5-mm diameter) until the cell reached confluency; thereafter, the cell was then cultured in the absence of serum, for about 12 hours or longer and used for this experiment. Fura2-AM (4 μM) was added to the cell in the Hank's balanced salt solution (HBSS) (140 mM NaCl, 4 MM KCl, 1 mM K2HPO4, 1 mM MgCl2, 1 mM CaCl2, 10 mM glucose and 20 mM Hepes, pH-7.4) and incubated at 37° C. for one hour. The cell disk was fixed in a quartz cell placing therein HBSS; the quartz cell was fixed in an intracellular Ca^2+ assay unit (CAF-110). […] Intracellular Ca^2+ concentration was estimated by measuring and detecting the ratio of fluorescence intensities at 500 nm with excitation wave lengths of 340/380 nm and calculating intracellular Ca^2+ concentration using designated formula (J.Biol.Chem.,260,3440-3450,1985). […]
as §2

[5] = 0.3, 1 and 3 mg/kg p.o., 60 min before ET-1 10 pmol/paw

Row | Molecule | EC50 ([1]; ET-1 10^−12 to 10^−6 M, WST-1) | concentration above which the effect of ET-1 on [3H]-thymidine incorporation was statistically significant [2] | ET-1-induced enhancement of formalin-induced edema ([3]; ET-1 3, 10 and 30 pmol/paw with 0.7% formalin s.c. in hind paw) | ET-1-induced enhancement of formalin-induced pain, first phase ([3]; ET-1 3, 10 and 30 pmol/paw with 0.7% formalin s.c. in hind paw, 0-5 min) | ET-1-induced enhancement of formalin-induced pain, second phase ([3]; ET-1 3, 10 and 30 pmol/paw with 0.7% formalin s.c. in hind paw, 10-40 min) | EC50 ([4]; ET-1 10^−12 to 10^−6 M) | IC50 ([1]; ET-1 10^−9 M) | concentration above which the inhibitory effect was statistically significant ([2]; ET-1 10^−8 M) | IC50 ([2]; ET-1 10^−8 M, [3H]-thymidine incorporation, read-out: IC50 of ET-1-induced promotion of PPC-1 cell growth) | suppression of ET-1-induced enhancement of formalin-induced edema [3, 5] | suppression of ET-1-induced enhancement of formalin-induced pain, first phase [3, 5] | suppression of ET-1-induced enhancement of formalin-induced pain, second phase [3, 5] | IC50 ([4]; ET-1 10^−8 M)
1 | ET-1: endothelin; induces pain in humans and experimental animals; used as stimulus of pain, Ca2+ increase and cell growth [reference compound] | 0.022 nM | above 10^−8 M | significantly enhanced | significantly enhanced | significantly enhanced | 7.39 nM | – | – | – | – | – | – | –
2 | COc1ccccc1Oc1c(NS(=O)(=O)C=Cc2ccccc2)nc(-c2ncccn2)nc1OC.[K] [Compound 1, N-[6-methoxy-5-(2-methoxyphenoxy)-2-(2-pyrimidinyl)-4-pyrimidinyl]-2-phenylethenesulfoneamide•potassium salt] | – | – | – | – | – | – | 9.54 nM | above 3×10^−7 M | 28 ± 9.8 nM | significantly suppressed | significantly suppressed | significantly suppressed | 10.2 nM
